Experimental data reported in ChEMBL document CHEMBL1128649, “CD45 protein tyrosine phosphatase: Determination of minimal peptide length for substrate recognition and synthesis of some tyrosine-based electrophiles as potential active-site directed irreversible inhibitors” (Bioorg Med Chem Lett, 1995).
Each block holds one molecule with its values, some of them ahead of it. The source made the active and inactive calls. The calls are words filed in the database; no cut-off is given here. Non-standard residues stand in square brackets, D forms with d. Residues, ends and D or L forms follow the SMILES beside them. *: point of attachment. pY = N[C@@H](Cc1ccc(OP(=O)(O)O)cc1)C(=O)O; Cbz = O=C(OCc1ccccc1)*

Tests used:
[1] = molecular target: T1, Receptor-type tyrosine-protein phosphatase C (Homo sapiens) (UniProt P08575); experiment: (§1) Kinetic constant for CD45 protein tyrosine phosphatase inhibition was evaluated using malachite green assay
T1 sequence (whole entry): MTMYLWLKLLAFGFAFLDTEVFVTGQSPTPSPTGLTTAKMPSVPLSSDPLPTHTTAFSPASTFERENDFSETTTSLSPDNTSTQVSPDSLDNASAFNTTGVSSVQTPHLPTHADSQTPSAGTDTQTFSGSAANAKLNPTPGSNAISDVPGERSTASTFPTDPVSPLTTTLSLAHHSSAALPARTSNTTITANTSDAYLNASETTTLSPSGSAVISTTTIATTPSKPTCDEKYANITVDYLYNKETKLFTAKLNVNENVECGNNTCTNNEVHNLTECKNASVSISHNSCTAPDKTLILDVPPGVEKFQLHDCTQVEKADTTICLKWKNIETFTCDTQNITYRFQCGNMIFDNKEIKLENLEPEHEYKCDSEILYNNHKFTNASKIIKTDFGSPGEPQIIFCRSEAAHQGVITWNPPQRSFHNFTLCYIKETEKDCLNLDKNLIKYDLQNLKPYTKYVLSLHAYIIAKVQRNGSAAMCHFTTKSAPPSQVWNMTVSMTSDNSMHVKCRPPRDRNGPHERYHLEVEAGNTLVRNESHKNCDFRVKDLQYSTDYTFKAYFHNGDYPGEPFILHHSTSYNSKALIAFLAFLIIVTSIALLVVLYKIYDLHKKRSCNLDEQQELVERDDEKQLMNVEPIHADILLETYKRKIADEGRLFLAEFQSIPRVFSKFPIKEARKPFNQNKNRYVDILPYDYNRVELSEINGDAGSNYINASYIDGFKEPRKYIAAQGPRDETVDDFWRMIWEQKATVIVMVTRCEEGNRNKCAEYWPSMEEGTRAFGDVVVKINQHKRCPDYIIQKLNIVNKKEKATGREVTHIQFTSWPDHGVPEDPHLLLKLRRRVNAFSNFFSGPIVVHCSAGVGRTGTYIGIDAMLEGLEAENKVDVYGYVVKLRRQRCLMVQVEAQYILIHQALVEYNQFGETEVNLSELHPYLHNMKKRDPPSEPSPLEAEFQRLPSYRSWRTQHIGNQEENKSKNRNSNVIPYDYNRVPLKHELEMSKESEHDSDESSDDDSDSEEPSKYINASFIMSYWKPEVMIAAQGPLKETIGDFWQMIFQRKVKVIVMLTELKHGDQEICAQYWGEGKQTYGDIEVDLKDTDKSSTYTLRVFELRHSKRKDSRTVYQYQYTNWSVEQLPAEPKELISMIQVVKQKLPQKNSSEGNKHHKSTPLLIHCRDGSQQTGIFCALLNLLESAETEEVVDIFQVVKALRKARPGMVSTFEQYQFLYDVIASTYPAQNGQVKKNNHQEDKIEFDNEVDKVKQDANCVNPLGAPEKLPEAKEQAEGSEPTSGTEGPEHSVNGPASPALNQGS

[2] = molecular target: T1, Receptor-type tyrosine-protein phosphatase C (Homo sapiens); experiment: (§2) Kinetic constant for CD45 Protein-tyrosine phosphatase inhibition was evaluated using malachite green assay
[3] = molecular target: T1, Receptor-type tyrosine-protein phosphatase C (Homo sapiens); experiment: Compound was evaluated for inhibitory activity against CD45 protein tyrosine phosphatase at a concentration of 200 uM; no activity
[4] = compound: CC(=O)N[C@@H](Cc1ccccc1)C(=O)N[C@H](C(=O)N[C@@H](C)C(=O)N[C@H](C(=O)N[C@@H](CCC(=O)O)C(=O)N1CCC[C@H]1C(=O)N[C@@H](CCC(N)=O)C(=O)N[C@@H](Cc1ccc(OP(=O)(O)O)cc1)C(=O)N[C@@H](CCC(N)=O)C(=O)N1CCC[C@H]1C(=O)NCC(=O)N[C@@H](CCC(N)=O)C(=O)N[C@@H](CC(N)=O)C(=O)N[C@@H](CC(C)C)C(N)=O)[C@@H](C)O)[C@@H](C)O; experiment: as §2
[5] = compound: CC(=O)N1CCC[C@H]1C(=O)N[C@@H](CCC(N)=O)C(=O)N[C@@H](Cc1ccc(OP(=O)(O)O)cc1)C(=O)N[C@@H](CCC(N)=O)C(=O)N1CCC[C@@H]1C(N)=O; experiment: as §1
[6] = compound: CC(=O)N[C@@H](C)C(=O)N[C@H](C(=O)N[C@@H](CCC(=O)O)C(=O)N1CCC[C@H]1C(=O)N[C@@H](CCC(N)=O)C(=O)N[C@@H](Cc1ccc(OP(=O)(O)O)cc1)C(=O)N[C@@H](CCC(N)=O)C(=O)N1CCC[C@H]1C(=O)NCC(=O)N[C@@H](CCC(N)=O)C(=O)N[C@@H](CC(N)=O)C(=O)N[C@@H](CC(C)C)C(N)=O)[C@@H](C)O; experiment: as §1
[7] = compound: O=[N+]([O-])c1ccc(OP(=O)(O)O)cc1; experiment: as §1
[8] = compound: CC(=O)N[C@@H](CCC(=O)O)C(=O)N1CCC[C@H]1C(=O)N[C@@H](CCC(N)=O)C(=O)N[C@@H](Cc1ccc(OP(=O)(O)O)cc1)C(=O)N[C@@H](CCC(N)=O)C(=O)N1CCC[C@H]1C(=O)NCC(=O)N[C@@H](CCC(N)=O)C(=O)N[C@@H](CC(N)=O)C(=O)N[C@@H](CC(C)C)C(N)=O; experiment: as §1
[9] = compound: CC(=O)N[C@@H](CCC(N)=O)C(=O)N[C@@H](Cc1ccc(OP(=O)(O)O)cc1)C(=O)N[C@@H](CCC(N)=O)C(=O)N1CCC[C@H]1C(=O)NCC(=O)N[C@@H](CCC(N)=O)C(=O)N[C@@H](CC(N)=O)C(=O)N[C@@H](CC(C)C)C(N)=O; experiment: as §1
[10] = compound: CC(=O)N1CCC[C@H]1C(=O)N[C@@H](CCC(N)=O)C(=O)N[C@@H](Cc1ccc(OP(=O)(O)O)cc1)C(=O)N[C@@H](CCC(N)=O)C(N)=O; experiment: as §1
[11] = compound: CC(=O)N[C@@H](CCC(N)=O)C(=O)N[C@@H](Cc1ccc(OP(=O)(O)O)cc1)C(=O)N[C@@H](CCC(N)=O)C(=O)N1CCC[C@@H]1C(N)=O; experiment: as §1
[12] = compound: CC(=O)N[C@@H](Cc1ccc(OP(=O)(O)O)cc1)C(N)=O; experiment: as §1

- k cat [1]: 3.95 s⁻¹
Molecule: CC(=O)N1CCC[C@H]1C(=O)N[C@@H](CCC(N)=O)C(=O)N[C@@H](Cc1ccc(OP(=O)(O)O)cc1)C(=O)N[C@@H](CCC(N)=O)C(=O)N1CCC[C@@H]1C(N)=O

- k cat [1]: 3.95 s⁻¹
Molecule: CC(=O)N[C@@H](CCC(N)=O)C(=O)N[C@@H](Cc1ccc(OP(=O)(O)O)cc1)C(=O)N[C@@H](CCC(N)=O)C(=O)N1CCC[C@@H]1C(N)=O

- k cat [2]: 3.95 s⁻¹
Molecule: CC(=O)N[C@@H](Cc1ccccc1)C(=O)N[C@H](C(=O)N[C@@H](C)C(=O)N[C@H](C(=O)N[C@@H](CCC(=O)O)C(=O)N1CCC[C@H]1C(=O)N[C@@H](CCC(N)=O)C(=O)N[C@@H](Cc1ccc(OP(=O)(O)O)cc1)C(=O)N[C@@H](CCC(N)=O)C(=O)N1CCC[C@H]1C(=O)NCC(=O)N[C@@H](CCC(N)=O)C(=O)N[C@@H](CC(N)=O)C(=O)N[C@@H](CC(C)C)C(N)=O)[C@@H](C)O)[C@@H](C)O (Ac-FTATEPQ[pY]QPGQNL-NH2)

- k cat [1]: 4.93 s⁻¹
Molecule: CC(=O)N[C@@H](C)C(=O)N[C@H](C(=O)N[C@@H](CCC(=O)O)C(=O)N1CCC[C@H]1C(=O)N[C@@H](CCC(N)=O)C(=O)N[C@@H](Cc1ccc(OP(=O)(O)O)cc1)C(=O)N[C@@H](CCC(N)=O)C(=O)N1CCC[C@H]1C(=O)NCC(=O)N[C@@H](CCC(N)=O)C(=O)N[C@@H](CC(N)=O)C(=O)N[C@@H](CC(C)C)C(N)=O)[C@@H](C)O (Ac-ATEPQ[pY]QPGQNL-NH2)

- Activity [3]: inactive
Molecule: NC(=O)[C@H](Cc1ccc(OC[C@@H]2CO2)cc1)NC(=O)OCc1ccccc1

- k cat [1]: 3.95 s⁻¹
Molecule: CC(=O)N1CCC[C@H]1C(=O)N[C@@H](CCC(N)=O)C(=O)N[C@@H](Cc1ccc(OP(=O)(O)O)cc1)C(=O)N[C@@H](CCC(N)=O)C(N)=O (Ac-PQ[pY]Q-NH2)

- Activity [3]: inactive
Molecule: NC(=O)CC[C@H](NC(=O)[C@H](Cc1ccc(OC[C@@H]2CO2)cc1)NC(=O)[C@H](CCC(N)=O)NC(=O)OCc1ccccc1)C(N)=O

- Activity [3]: inactive
Molecule: NC(=O)CC[C@H](NC(=O)[C@H](Cc1ccc(O)cc1)NC(=O)[C@H](CCC(N)=O)NC(=O)OCc1ccccc1)C(N)=O (Cbz-Gln-Tyr-Gln-NH2)

- k cat [1]: 4.82 s⁻¹
Molecule: CC(=O)N[C@@H](CCC(N)=O)C(=O)N[C@@H](Cc1ccc(OP(=O)(O)O)cc1)C(=O)N[C@@H](CCC(N)=O)C(=O)N1CCC[C@H]1C(=O)NCC(=O)N[C@@H](CCC(N)=O)C(=O)N[C@@H](CC(N)=O)C(=O)N[C@@H](CC(C)C)C(N)=O (Ac-Q[pY]QPGQNL-NH2)

Molecule: NC(=O)[C@H](Cc1ccc(OP(=O)(O)CCl)cc1)NC(=O)OCc1ccccc1
- Activity [3]: inactive

- k cat [1]: 3.95 s⁻¹
Molecule: CC(=O)N[C@@H](Cc1ccc(OP(=O)(O)O)cc1)C(N)=O

- k cat [1]: 4.22 s⁻¹
Molecule: CC(=O)N[C@@H](CCC(=O)O)C(=O)N1CCC[C@H]1C(=O)N[C@@H](CCC(N)=O)C(=O)N[C@@H](Cc1ccc(OP(=O)(O)O)cc1)C(=O)N[C@@H](CCC(N)=O)C(=O)N1CCC[C@H]1C(=O)NCC(=O)N[C@@H](CCC(N)=O)C(=O)N[C@@H](CC(N)=O)C(=O)N[C@@H](CC(C)C)C(N)=O (Ac-EPQ[pY]QPGQNL-NH2)

- Activity [3]: inactive
Molecule: NC(=O)[C@H](Cc1ccc(O)cc1)NC(=O)OCc1ccccc1

- k cat [1]: 3.95 s⁻¹
Molecule: O=[N+]([O-])c1ccc(OP(=O)(O)O)cc1

- Activity [3]: inactive
Molecule: NC(=O)[C@H](Cc1ccc(OC(=O)CCl)cc1)NC(=O)OCc1ccccc1

- Activity [3]: inactive
Molecule: NC(=O)[C@H](Cc1ccc(OC[C@H]2CO2)cc1)NC(=O)OCc1ccccc1

B1: Receptor-type tyrosine-protein phosphatase C (Homo sapiens), P08575 (protein)
chain: T1 sequence (whole entry)
- Km [4]: 278 µM
- Km [5]: 278 µM
- Km [6]: 143 µM
- Km [7]: 278 µM
- Km [8]: 102 µM
- Km [9]: 172 µM
- Km [10]: 278 µM
- Km [11]: 278 µM
- Km [12]: 278 µM
